Data: patent publication US7211561B2, “Method for inducing selective cell death of malignant cells by activation of calcium-activated potassium channels (KCa)” (Cedars-Sinai Medical Center, priority 2001, dated 2007)
Structures can show the parent of a compound that is named as a salt.

How the values were obtained:
[1] = system: rat and human malignant cells studied, as well as normal cells; experiment: Cell proliferation assay (WST-1, OD 450 nm), all cell lines; type: cell-based; details: data not shown
Protocol: Primary cell lines were prepared from human gliomas (glioblastoma multiforme [GBM] or astrocytoma) or established rat glioma cell lines (RG2, C6 and 9L) were used. Cultured human normal cell lines, brain microvessel endothelial cells (HBMVEC), or fetal astrocytes were used.
Cells (5×10^4 cells) were cultured in each well of 96-well microtiter culture plates and were allowed to achieve confluency to form a monolayer of cells in each well. For dose response studies cells were incubated with different concentrations (1–100 μg/mL) of NS-1619 or minoxidil sulfate for 4 hours at 37° C. in a CO2 (5%) incubator. Cells washed twice carefully with respective medium, and allowed to incubate overnight at 37° C. under 5% CO2. The following day, cells were incubated with WST-1 reagent (Boehringer Mannheim) at 37° C. in a CO2 (5%) incubator for 60–90 minutes, and optical density at 450 nm was measured with a 96-well plate reader. The magnitude of OD indicated the number of viable cells, greater the OD, higher the number of viable cells, correlated a standard curve of cell numbers.

[2] = system: U87 human glioma cells; experiment: In vitro apoptosis assay (Annexin V-FITC/propidium iodide, FACS); type: cell-based; details: 5 μM, positive control (FIG. 5C)
Protocol: Human glioma cells (U-87) and HBMVECells were seeded into a 25-mL tissue-culture flask. After 24 h (about 60–70% confluencey), cells were treated with either […] (50 or 100 micrograms/mL) or staurosporine (positive control; 5 μM), a known inducer of apoptosis (Tamaoki, T., et al., Staurosporine, a potent inhibitor of phospholipid/Ca^++ dependent protein kinase, Biochem. Biophys. Res. Commun. 135: 397–402 [1986]; Matsumoto, H., and Sasaki, Y., Staurosporine, a protein kinase C inhibitor interferes with proliferation of arterial smooth muscle cells, Biochem. Biophys. Res. Commun. 158:105–109 [1989]). U-87 cells were returned to the CO2 incubator and incubated overnight. The following day, cells were washed twice with fresh growth medium and cells prepared for FACS analysis as described hereinbelow.
The changes in plasma membrane are one of the earliest events in cell death. In apoptotic cells the membrane phospholipid phosphatidylserine (PS) is translocated from the inner to the outer leaflet of the cell membrane in the early phases of apoptosis. Annexin V is a Ca^2+-dependent, phospholipid-binding protein that binds to PS with high affinity. Consequently, Annexin V (PharMingen) conjugated to a label, such as fluorescein isothiocyanate (FITC) or biotin, serves as a sensitive probe for flow cytometry analysis of cells that are undergoing apoptosis. […] (PharMingen; Vermes, I. et al., A novel assay for apoptosis. Flow cytometric detection of phosphatidylserine expression on early apoptotic cells using fluorescein labelled Annexin V, J. Immunol. Meth. 184:39–51 [1995]). Concurrently, propidium iodide is typically used as a standard flow cytometric viability probe, because the intact cell membranes of viable cells exclude propidium iodide, whereas the cell membranes of dead and damaged cells are permeable to propidium iodide. Cells that stain positive for Annexin V and negative for propidium iodide are undergoing apoptosis; cells that stain positive for both Annexin V and propidium iodide are either at the end stage of apoptosis, are undergoing necrosis, or are already dead; and cells that stain negative for both Annexin V-biotin and propidium iodide are alive and not undergoing measurable apoptosis. Briefly, the cells were washed twice with cold PBS and then resuspended in 1× binding buffer (10 mM HEPES/NaOH, pH 7.4, 140 mM NaCl, 2.5 mM CaCl2; 4° C.) at a concentration of about 1×10^6 cells/mL. A 100-μL aliquot of cell suspension was transferred to 5-mL culture tubes, and 2.5 μL of Annexin V-FITC and 2.5-μL of propidium iodide (PharMingen) were added to each tube. The cell suspensions were gently mixed and incubated for 15 min at room temperature in the dark, after which 400 μL of binding buffer was added to each tube of cells. […]

[3] = system: implanted RG2 glioma tumor in Wistar rats; experiment: In vivo apoptosis, intracarotid infusion, implanted tumor tissue (FACS); design: species or system rat; details: RG2 tumor; 20 μg/kg body mass bolus, positive control (FIG. 8I)
From the text: The changes in plasma membrane are one of the earliest events in cell death. In apoptotic cells the membrane phospholipid phosphatidylserine (PS) is translocated from the inner to the outer leaflet of the cell membrane in the early phases of apoptosis. Annexin V is a Ca^2+-dependent, phospholipid-binding protein that binds to PS with high affinity. Consequently, Annexin V (PharMingen) conjugated to a label, such as fluorescein isothiocyanate (FITC) or biotin, serves as a sensitive probe for flow cytometry analysis of cells that are undergoing apoptosis. […] (PharMingen; Vermes, I. et al., A novel assay for apoptosis. Flow cytometric detection of phosphatidylserine expression on early apoptotic cells using fluorescein labelled Annexin V, J. Immunol. Meth. 184:39–51 [1995]). Concurrently, propidium iodide is typically used as a standard flow cytometric viability probe, because the intact cell membranes of viable cells exclude propidium iodide, whereas the cell membranes of dead and damaged cells are permeable to propidium iodide. Cells that stain positive for Annexin V and negative for propidium iodide are undergoing apoptosis; cells that stain positive for both Annexin V and propidium iodide are either at the end stage of apoptosis, are undergoing necrosis, or are already dead; and cells that stain negative for both Annexin V-biotin and propidium iodide are alive and not undergoing measurable apoptosis. Briefly, the cells were washed twice with cold PBS and then resuspended in 1× binding buffer (10 mM HEPES/NaOH, pH 7.4, 140 mM NaCl, 2.5 mM CaCl2; 4° C.) at a concentration of about 1×10^6 cells/mL. A 100-μL aliquot of cell suspension was transferred to 5-mL culture tubes, and 2.5 μL of Annexin V-FITC and 2.5-μL of propidium iodide (PharMingen) were added to each tube. The cell suspensions were gently mixed and incubated for 15 min at room temperature in the dark, after which 400 μL of binding buffer was added to each tube of cells. The cells were then washed once with 1×binding buffer. Analysis by flow cytometry was then conducted immediately, and no later than within one hour. The resulting analytic FACS graphs were typically divided into four quadrants wherein the upper right (UR) quadrant represented the number of necrotic cells; the lower left (LL) quadrant represented the number of viable cells; the lower right (LR) quadrant represented the number of apoptotic cells; and the upper left (UL) represented cells of an intermediate category, which generally represents cell debris and DNA fragments. The percentage of gated events in each quadrant was used to determine the total percentage of apoptotic and necrotic cells in each cell suspension.
A rat tumor model, which consisted of intracranially implanted RG2 cells (rat glioma cell line) in Wistar rats, was employed to investigate whether any of several potassium channel activators induce selective apoptosis of tumor cells in vivo.
The techniques for RG2 cell propagation and maintenance in tissue culture have been described (Sugita, M. and Black, K. L., Cyclic GMP-specific phosphodiesterase inhibition and intracarotid bradykinin infusion enhances permeability into brain tumors, Cancer Res. 58(5):914–20 [1998]; Inamura et al. [1994]; Nakano, S. et al., Increased brain tumor microvessel permeability after intracarotid bradykinin infusion is mediated by nitric oxide, Cancer Res. 56(17):4027–31 [1996]). Briefly, RG2 cells derived from a rat glioma are kept frozen until use, then are thawed and maintained in a monolayer culture in F12 medium with 10% calf serum.
The Wistar rats (approximately 140–160 g body weight) were anesthetized with intra-peritoneal ketamine (50 mg/kg), and glial cells (1×10^5) were implanted into the right hemisphere, but not the contralateral hemisphere, by intracerebral injection suspended in 5 μL F12 medium (1–2% methylcellulose) by a Hamilton syringe. The implantation coordinates were 3-mm lateral to the bregma and 4.5 mm deep to the dural surface. […]

[4] = system: contralateral normal brain tissue of Wistar rats with implanted RG2 tumor; experiment: In vivo apoptosis, intracarotid infusion, contralateral tissue (FACS); details: 20 μg/kg body mass bolus, positive control (FIG. 8J)
From the text: The changes in plasma membrane are one of the earliest events in cell death. In apoptotic cells the membrane phospholipid phosphatidylserine (PS) is translocated from the inner to the outer leaflet of the cell membrane in the early phases of apoptosis. Annexin V is a Ca^2+-dependent, phospholipid-binding protein that binds to PS with high affinity. Consequently, Annexin V (PharMingen) conjugated to a label, such as fluorescein isothiocyanate (FITC) or biotin, serves as a sensitive probe for flow cytometry analysis of cells that are undergoing apoptosis. […] (PharMingen; Vermes, I. et al., A novel assay for apoptosis. Flow cytometric detection of phosphatidylserine expression on early apoptotic cells using fluorescein labelled Annexin V, J. Immunol. Meth. 184:39–51 [1995]). Concurrently, propidium iodide is typically used as a standard flow cytometric viability probe, because the intact cell membranes of viable cells exclude propidium iodide, whereas the cell membranes of dead and damaged cells are permeable to propidium iodide. […]

Compound | sensitivity (cell proliferation) [1] | apoptotic cells [2] [%] | necrotic cells [2] [%] | apoptotic cells [3] [%] | necrotic cells [3] [%] | apoptotic cells [4] [%] | necrotic cells [4] [%]
Nc1cc(N2CCCCC2)nc(N)[n+]1OS(=O)(=O)[O-] [minoxidil sulfate] | insensitive | – | – | – | – | – | –
CN[C@@H]1C[C@H]2O[C@@](C)([C@@H]1OC)n1c3ccccc3c3c4c(c5c6ccccc6n2c5c31)C(=O)NC4 [staurosporin] | – | 31 | 27 | 35 | 17 | 5 | 11
